# Source: ChEMBL document CHEMBL5154914, “Discovery of Pentacyclic Triterpenoid PROTACs as a Class of Effective Hemagglutinin Protein Degraders” (J Med Chem, 2022)
# Calls of active or inactive are those of the source. The calls are words filed in the database; no cut-off is given here.
# How the values were obtained:
# [1] = molecular target: T1, Protein cereblon/Hemagglutinin (Influenza A virus) (UniProt B4URE7+Q96SW2); assay: Protac activity at CRBN (unknown origin)/Influenza A hemagglutinin transfected in HEK293T cells assessed as induction of hemagglutinin degradation at 0.78 uM incubated for 24 hrs by Western blot analysis relative to control; type: cell-based
# [2] = molecular target: T1, Protein cereblon/Hemagglutinin (Influenza A virus); assay: Protac activity at CRBN (unknown origin)/Influenza A hemagglutinin transfected in HEK293T cells assessed as induction of hemagglutinin degradation at 50 uM incubated for 12 hrs by Western blot analysis relative to control; type: cell-based
# [3] = molecular target: T2, von Hippel-Lindau disease tumor suppressor/Hemagglutinin (Homo sapiens, UniProt P03452+P40337); assay: Protac activity at VHL (unknown origin)/influenza A hemagglutinin transfected in HEK293T cells assessed as degradation of hemagglutinin incubated for 10 hrs by Western blot analysis; type: cell-based
# HEK-293T = assay: Cytotoxicity against HEK293T cells assessed as reduction in cell viability at 50 uM incubated for 36 hrs by Celltiter-Glo assay; type: toxicity, cell-based; conditions: human
# [4] = molecular target: T2, von Hippel-Lindau disease tumor suppressor/Hemagglutinin; assay: Protac activity at VHL (unknown origin)/influenza A hemagglutinin transfected in HEK293T cells assessed as degradation of hemagglutinin at 0.39 to 25 uM incubated for 10 hrs by Western blot analysis; type: cell-based; conditions: dose 0.39-25 µM
# Target sequence in this assay (P03452 whole entry, looked up): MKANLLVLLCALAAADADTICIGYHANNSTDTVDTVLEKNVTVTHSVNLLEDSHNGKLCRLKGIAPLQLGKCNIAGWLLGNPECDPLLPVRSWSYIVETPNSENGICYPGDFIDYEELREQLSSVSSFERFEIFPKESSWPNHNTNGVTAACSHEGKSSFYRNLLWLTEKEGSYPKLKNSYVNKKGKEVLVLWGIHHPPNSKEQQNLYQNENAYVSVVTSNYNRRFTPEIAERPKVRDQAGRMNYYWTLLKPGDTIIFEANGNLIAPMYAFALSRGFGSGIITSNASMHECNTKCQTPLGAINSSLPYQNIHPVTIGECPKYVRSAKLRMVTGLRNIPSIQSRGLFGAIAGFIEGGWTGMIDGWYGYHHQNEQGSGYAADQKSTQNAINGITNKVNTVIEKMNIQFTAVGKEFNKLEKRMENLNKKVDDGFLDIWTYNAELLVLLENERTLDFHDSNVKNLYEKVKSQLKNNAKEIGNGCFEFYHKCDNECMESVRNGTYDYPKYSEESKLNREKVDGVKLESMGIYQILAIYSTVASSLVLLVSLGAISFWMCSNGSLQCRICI
# Target sequence in this assay (P40337 whole entry, looked up): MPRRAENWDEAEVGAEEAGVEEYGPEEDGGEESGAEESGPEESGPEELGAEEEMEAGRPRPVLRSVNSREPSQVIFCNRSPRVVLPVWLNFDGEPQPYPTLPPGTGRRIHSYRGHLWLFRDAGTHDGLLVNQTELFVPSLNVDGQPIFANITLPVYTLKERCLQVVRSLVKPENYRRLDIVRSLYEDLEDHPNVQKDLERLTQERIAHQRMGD
# [5] = molecular target: von Hippel-Lindau disease tumor suppressor (Homo sapiens, UniProt P40337); assay: Binding affinity to human recombinant VHL assessed as dissociation constant by SPR assay
# [6] = molecular target: T2, von Hippel-Lindau disease tumor suppressor/Hemagglutinin; assay: Protac activity at VHL (unknown origin)/influenza A hemagglutinin transfected in HEK293T cells assessed as degradation of hemagglutinin incubated for 24 hrs by Western blot analysis; type: cell-based; conditions: dose 0.03-33.3 µM, DDE = dose-dependent effect
# Target sequence in this assay (P03452 whole entry, looked up): as the sequence (P03452 whole entry, looked up) above
# Target sequence in this assay (P40337 whole entry, looked up): as the sequence (P40337 whole entry, looked up) above
# [7] = molecular target: T2, von Hippel-Lindau disease tumor suppressor/Hemagglutinin; assay: Protac activity at VHL (unknown origin)/influenza A hemagglutinin transfected in HEK293T cells assessed as degradation of hemagglutinin at 33 uM incubated for 24 hrs by Western blot analysis relative to control; type: cell-based
# Target sequence in this assay (P03452 whole entry, looked up): as the sequence (P03452 whole entry, looked up) above
# Target sequence in this assay (P40337 whole entry, looked up): as the sequence (P40337 whole entry, looked up) above
# [8] = molecular target: T2, von Hippel-Lindau disease tumor suppressor/Hemagglutinin; assay: Protac activity at VHL (unknown origin)/influenza A hemagglutinin transfected in HEK293T cells assessed as degradation of hemagglutinin incubated for 12 hrs by Western blot analysis; type: cell-based; conditions: dose 0.39-25 µM, DDE = dose-dependent effect
# Target sequence in this assay (P03452 whole entry, looked up): as the sequence (P03452 whole entry, looked up) above
# Target sequence in this assay (P40337 whole entry, looked up): as the sequence (P40337 whole entry, looked up) above
# [9] = Oral bioavailability in BALB/c mouse infected with Influenza A A/WSN/33 (H1N1) virus at 50 mg/kg measured after 24 hrs by LC-MS analysis; type: ADME, organism-based; conditions: in vivo
# [10] = Tmax in BALB/c mouse infected with Influenza A A/WSN/33 (H1N1) virus at 50 mg/kg, po administered as single dose measured after 24 hrs by LC-MS analysis; type: ADME, organism-based; conditions: in vivo
# [11] = Elimination half life in BALB/c mouse infected with Influenza A A/WSN/33 (H1N1) virus at 50 mg/kg, po measured after 24 hrs by LC-MS analysis; type: ADME, organism-based; conditions: in vivo, read-out: LambdaZ (converted)
# [12] = Elimination half life in BALB/c mouse infected with Influenza A A/WSN/33 (H1N1) virus at 10 mg/kg, iv measured after 24 hrs by LC-MS analysis; type: ADME, organism-based; conditions: in vivo, read-out: LambdaZ (converted)
# Hemagglutinin = Hemagglutinin (Influenza A virus, UniProt B4URE7); assay: Binding affinity to recombinant influenza A hemagglutinin assessed as dissociation constant by SPR assay
# [13] = AUCinfinity in BALB/c mouse infected with Influenza A A/WSN/33 (H1N1) virus at 10 mg/kg, iv measured after 24 hrs by LC-MS analysis; type: ADME, organism-based; design: dose 10 mg/kg, time 24 hrs, route iv; conditions: in vivo
# [14] = molecular target: T2, von Hippel-Lindau disease tumor suppressor/Hemagglutinin; assay: Protac activity at VHL (unknown origin)/influenza A hemagglutinin transfected in HEK293T cells assessed as degradation of hemagglutinin incubated for 7 to 10 hrs by Western blot analysis; type: cell-based; conditions: time 7-10 hrs
# Target sequence in this assay (P03452 whole entry, looked up): as the sequence (P03452 whole entry, looked up) above
# Target sequence in this assay (P40337 whole entry, looked up): as the sequence (P40337 whole entry, looked up) above
# [15] = molecular target: T2, von Hippel-Lindau disease tumor suppressor/Hemagglutinin; assay: Protac activity at VHL (unknown origin)/influenza A hemagglutinin transfected in HEK293T cells assessed as accumulation of ubiquitinated hemagglutinin at 20 uM preincubated for 4 hrs followed by proteosome inhibitor, MG-132 addition and measured after 4 hrs by Immunoprecipitation analysis; type: cell-based
# Target sequence in this assay (P03452 whole entry, looked up): as the sequence (P03452 whole entry, looked up) above
# Target sequence in this assay (P40337 whole entry, looked up): as the sequence (P40337 whole entry, looked up) above
# [16] = molecular target: T2, von Hippel-Lindau disease tumor suppressor/Hemagglutinin; assay: Protac activity at VHL (unknown origin)/influenza A hemagglutinin transfected in HEK293T cells assessed as reduction in hemagglutinin level at 10 uM by immunoblotting analysis relative to control; type: cell-based; design: scale not given: the % may be the effect or the level left
# Influenza A virus [17] = assay: Antiviral activity against Influenza A A/WSN/33 (H1N1) infected in HEK293T cells incubated for 12 hrs; type: functional, organism-based; conditions: HEK-293T
# Influenza A virus [18] = assay: Antiviral activity against Influenza A A/California/08/2009 (H1N1) infected in HEK293T cells incubated for 12 hrs; type: functional, organism-based; conditions: HEK-293T
# Influenza A virus [19] = assay: Antiviral activity against Influenza A A/WSN/33 (H1N1) infected in BALB/c mouse assessed as recovery of body weight at 10 to 20 mg/kg/day, iv administered for 5 days starting from 2 hrs post infection and measured daily for 14 days; type: functional, organism-based; conditions: dose 10-20 mg/kg/day, time 14.0 day
# Influenza A virus [20] = assay: Antiviral activity against Influenza A A/Aichi/2/68 (H3N2) infected in HEK293T cells incubated for 12 hrs; type: functional, organism-based; conditions: HEK-293T
# Influenza B virus = assay: Antiviral activity against Influenza B B/Florida/4/2006 infected in HEK293T cells incubated for 12 hrs; type: functional, organism-based; conditions: B/Florida/4/2006, HEK-293T
# [21] = Cmax in BALB/c mouse infected with Influenza A A/WSN/33 (H1N1) virus at 10 mg/kg, iv measured after 24 hrs by LC-MS analysis; type: ADME, organism-based; design: time 24 hrs, dose 10 mg/kg, route iv; conditions: in vivo
# [22] = Cmax in BALB/c mouse infected with Influenza A A/WSN/33 (H1N1) virus at 50 mg/kg, po measured after 24 hrs by LC-MS analysis; type: ADME, organism-based; design: time 24 hrs, dose 50 mg/kg, route po; conditions: in vivo
# [23] = AUCinfinity in BALB/c mouse infected with Influenza A A/WSN/33 (H1N1) virus at 50 mg/kg, po measured after 24 hrs by LC-MS analysis; type: ADME, organism-based; design: time 24 hrs, dose 50 mg/kg, route po; conditions: in vivo
# [24] = MRT in BALB/c mouse infected with Influenza A A/WSN/33 (H1N1) virus at 10 mg/kg, iv measured after 24 hrs by LC-MS analysis; type: ADME, organism-based; conditions: in vivo
# [25] = MRT in BALB/c mouse infected with Influenza A A/WSN/33 (H1N1) virus at 50 mg/kg, po measured after 24 hrs by LC-MS analysis; type: ADME, organism-based; conditions: in vivo
# [26] = Acute toxicity in BALB/c mouse infected with Influenza A A/WSN/33 (H1N1) virus assessed as decrease in body weight at 10 to 20 mg/kg/day, iv administered for 5 days starting from 2 hrs post infection and measured daily for 14 days; type: organism-based; conditions: in vivo, 336 h, dose 10-20 mg/kg/day, time 14 day
# [27] = Acute toxicity in BALB/c mouse infected with Influenza A A/WSN/33 (H1N1) virus assessed as mortality at 10 to 20 mg/kg/day, iv administered for 5 days starting from 2 hrs post infection and measured daily for 14 days; type: organism-based; conditions: in vivo, 336 h, dose 10-20 mg/kg/day, time 14 day
# Influenza A virus [28] = assay: Antiviral activity against Influenza A A/WSN/33 (H1N1) infected in BALB/c mouse assessed as plaque reduction at 10 to 20 mg/kg/day, iv incubated for 4 to 16 days (reference value: 2.7x10^6 PFU/g); type: functional; conditions: dose 10-20 mg/kg/day, time 4-16 day
# Influenza A virus [29] = assay: Antiviral activity against Influenza A A/WSN/33 (H1N1) infected in BALB/c mouse assessed as reduction in virus induced lung lesion at 10 mg/kg, iv measured on day 4 by histopathological staining based analysis; type: functional, organism-based; conditions: time 4.0 day
# Influenza A virus [30] = assay: Antiviral activity against Influenza A A/WSN/33 (H1N1) infected in BALB/c mouse assessed as reduction in virus induced inflammation at 10 mg/kg, iv measured on day 4 by histopathological staining based analysis; type: functional, organism-based; conditions: time 4.0 day
# Influenza A virus [31] = assay: Antiviral activity against Influenza A A/WSN/33 (H1N1) infected in BALB/c mouse assessed as fold reduction plaque count at 10 to 20 mg/kg/day, iv incubated for 4 to 16 days relative to control; type: functional; conditions: dose 10-20 mg/kg/day, time 4-16 day
# [32] = Cytotoxicity against HEK293T cells assessed as cell viability at 50 uM incubated for 36 hrs by Celltiter-Glo assay relative to control; type: toxicity, cell-based, HEK-293T; conditions: human, read-out: Activity
# Influenza A virus [33] = assay: Antiviral activity against influenza A A/WSN/33 (H1N1) infected in HEK293T cells assessed as reduction in hemagglutinin level at virion replication and release stage at 25 uM mesured after 3 to 9 hrs by immunofluorescence based confocal microscopic analysis; type: functional, organism-based; conditions: time 3-9 hrs
# Influenza A virus [34] = assay: Antiviral activity against Influenza A A/WSN/33 (H1N1) infected in dog MDCK cells assessed as inhibition of viral induced cytopathic effect incubated for 40 hrs by CellTiter-Glo assay; type: functional, organism-based
# Chain of von Hippel-Lindau disease tumor suppressor (P40337 whole entry): as the sequence (P40337 whole entry, looked up) above
smiles,measurement,setting,value
CC1(C)CC[C@]2(C(=O)NCCOCCOCCOCCNc3cccc4c3C(=O)N(C3CCC(=O)NC3=O)C4=O)CC[C@]3(C)C(=CC[C@@H]4[C@@]5(C)CC[C@H](O)C(C)(C)[C@@H]5CC[C@]43C)[C@@H]2C1 (some centres undefined),Activity,[1],> 50%
same,Activity,[2],20%
Cc1ncsc1-c1ccc(CNC(=O)[C@@H]2C[C@@H](O)CN2C(=O)[C@@H](NC(=O)CCOCCOCCOCCOCCOCCOCCOCCNC(=O)[C@]23CCC(C)(C)C[C@H]2C2=CC[C@@H]4[C@@]5(C)CC[C@H](O)C(C)(C)[C@@H]5CC[C@@]4(C)[C@]2(C)CC3)C(C)(C)C)cc1,Activity,[3],Active
same,Activity,HEK-293T,Toxic
same,Activity,[4],Active
Cc1ncsc1-c1ccc(CNC(=O)[C@@H]2CCCN2C(=O)[C@@H](N)C(C)(C)C)cc1,Kd,[5],4.97 µM
Cc1ncsc1-c1ccc(CNC(=O)[C@@H]2C[C@@H](O)CN2C(=O)[C@@H](NC(=O)CCOCCOCCNC(=O)[C@]23CCC(C)(C)C[C@H]2C2=CC[C@@H]4[C@@]5(C)CC[C@H](O)C(C)(C)[C@@H]5CC[C@@]4(C)[C@]2(C)CC3)C(C)(C)C)cc1,Activity,[6],Dde
same,Activity,[7],50%
same,Activity,[8],Dde
Cc1ncsc1-c1ccc(CNC(=O)[C@@H]2C[C@@H](O)CN2C(=O)[C@@H](NC(=O)CCOCCOCCOCCOCCOCCOCCOCCOCCOCCOCCNC(=O)[C@]23CCC(C)(C)C[C@H]2C2=CC[C@@H]4[C@@]5(C)CC[C@H](O)C(C)(C)[C@@H]5CC[C@@]4(C)[C@]2(C)CC3)C(C)(C)C)cc1,Activity,HEK-293T,Toxic
Cc1ncsc1-c1ccc(CNC(=O)[C@@H]2CCCN2C(=O)[C@@H](NC(=O)CCOCCOCCOCCNC(=O)[C@]23CCC(C)(C)C[C@H]2C2=CC[C@@H]4[C@@]5(C)CC[C@H](O)C(C)(C)[C@@H]5CC[C@@]4(C)[C@]2(C)CC3)C(C)(C)C)cc1,bioavailability,[9],6.8%
same,Tmax,[10],0.5 h
same,half-life,[11],2.63 h
same,half-life,[12],2.87 h
same,Kd,[5],9.25 µM
same,Kd,Hemagglutinin,3.18 µM
same,AUC(0-inf),[13],7450 ng·h/mL
same,Activity,[6],Dde
same,Activity,[7],50%
same,DC50,[3],1.44 µM
same,Activity,[8],Dde
same,Activity,HEK-293T,85%
same,Activity,[14],Active
same,Activity,[15],Active
same,Activity,[16],60%
same,EC50,Influenza A virus [17],4.53 µM
same,EC50,Influenza A virus [18],5.98 µM
same,Activity,Influenza A virus [19],Active
same,EC50,Influenza A virus [20],8.98 µM
same,EC50,Influenza B virus,> 25 µM
same,Cmax,[21],2070 ng/mL
same,Cmax,[22],2070 ng/mL
same,AUC(0-inf),[23],2550 ng·h/mL
same,MRT,[24],0.98 h
same,MRT,[25],1.56 h
same,Activity,[26],Non-Toxic
same,Activity,[27],Non-Toxic
same,Activity,Influenza A virus [28],8.1 10^5PFU/g
same,Activity,Influenza A virus [29],Active
same,Activity,Influenza A virus [30],Active
same,fold change (FC),Influenza A virus [31],3.5
same,"viability at 36 h, 50 µM",[32],> 85%
same,Activity,Influenza A virus [33],Active
CC1(C)CC[C@]2(C(=O)O)CC[C@]3(C)C(=CC[C@@H]4[C@@]5(C)CC[C@H](O)C(C)(C)[C@@H]5CC[C@]43C)[C@@H]2C1 [OLEANOLIC_ACID],IC50,Influenza A virus [34],> 200 µM
same,Kd,Hemagglutinin,10.9 µM
Cc1ncsc1-c1ccc(CNC(=O)[C@@H]2C[C@@H](O)CN2C(=O)[C@@H](NC(=O)CCOCCNC(=O)[C@]23CCC(C)(C)C[C@H]2C2=CC[C@@H]4[C@@]5(C)CC[C@H](O)C(C)(C)[C@@H]5CC[C@@]4(C)[C@]2(C)CC3)C(C)(C)C)cc1,Activity,[6],Dde
same,Activity,[7],50%
same,Activity,[8],Dde
Cc1ncsc1-c1ccc(CNC(=O)[C@@H]2C[C@@H](O)CN2C(=O)[C@@H](NC(=O)CCOCCOCCOCCOCCOCCNC(=O)[C@]23CCC(C)(C)C[C@H]2C2=CC[C@@H]4[C@@]5(C)CC[C@H](O)C(C)(C)[C@@H]5CC[C@@]4(C)[C@]2(C)CC3)C(C)(C)C)cc1,Activity,HEK-293T,Toxic
